Data taken from patent publication US9119848B2, “Morphinan derivatives for the treatment of drug overdose” (Alkermes Pharma Ireland Limited, priority 2009, dated 2015).

Tests used:
[1] = system: opioid dependent, opioid experienced subject; assay: Compound-1 after REMI challenge in an opioid dependent, opioid experienced subject; settings: 10 mg on Day 2, one opioid dependent subject
[2] = Elimination of Compound-1 in study subjects

Structure (SMILES): NC(=O)c1ccc2c(c1O)[C@]13CCN(CC4CC4)[C@H](C2)[C@]1(O)CCC(=O)C3 [Compound-1]
- time to severe drug withdrawal post-dosing [1]: 2 min
- fraction of Compound-1 eliminated ([2]; by 4 days post-dose): more than 99%
- half-life ([2]; human, in vivo, 20 mg): 7 h
